96 compounds from PubChem BioAssay AID464 (The Scripps Research Institute Molecular Screening Center, 2006) can be followed below.

Activity calls are given as the source filed them.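 Rule for the calls: active = Compounds that kill half the cells at a concentration of 5 micromolar or below, from the fitted or estimated CC50; inactive = CC50 above 5 micromolar.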

Broadly, the CC50 is the concentration at which the toxic effect on the cells reaches its halfway point.

The subject of this experiment is Jurkat E6.1 viability, ATP luminescence, 48 h. Put plainly: Jurkat E6.1 cell cytotoxicity, CC50 determination, dose response, cytotoxicity control, ATP luminescence, 48 h, 60K MLSMR (AID 464).
For `O=c1cc(Nc2ccc3c(c2)OCCO3)[nH]c(=O)n1C1CCCCC1`, the CC50 is 11.7 µM (inactive).
Next, `Clc1ccc(Cn2ncc3c(NCc4ccco4)ncnc32)c(Cl)c1`: 3.8 µM; `O=C(CSC1=NCCS1)Nc1ccnc2ccccc12`: > 40 µM (inactive); `Cc1cnc(C(=O)Nc2cccc3cccnc23)cn1`: 0.803 µM.
Turning to `Brc1ccc(C2=Nn3c(nnc3-c3n[nH]c4c3CCC4)SC2)cc1`, the CC50 was 0.313 µM.
Next, `CCOC(=O)N1CCN(S(=O)(=O)c2ccc(C(=O)Nc3ccc(F)cc3F)cc2)CC1`: 1.09 µM; `CCN(CC)c1nc(C#N)cc(-c2ccc(OC)cc2)n1`: 5.36 µM (inactive).
Regarding `COc1cc2c(O)c3c(c(-c4ccc5c(c4)OCO5)c2cc1OC)C(=O)OC3`, the CC50 is 5.28 µM (inactive).
Next, `Cc1cc(C)n(-c2nc3ccccc3c(=O)n2OCC(=O)OCc2ccccc2)n1`: 9.76 µM (inactive).
The figure for `COc1ccccc1N=c1oc2cc(O)ccc2cc1C(N)=O` is > 13 µM (inactive); for `CCOC(=O)N1CCN(C(=O)C2CCCN(Cc3nc(-c4ccc(Cl)cc4)oc3C)C2)CC1` (stereo unspecified) it is 4.64 µM; for `c1ccc(-c2cccc(-c3ccccn3)n2)nc1` it is 1.08 µM.
`Cc1cc(Cl)ccc1OCCCC(=O)NO`: the CC50 is 8.2 µM (inactive).
Next, `COc1ccc(CC(=O)Nc2cccc(-c3nnc(-c4ccccc4)o3)c2)cc1OC`: 15.8 µM (inactive); `CCOC(=O)c1[nH]c(C)c(C(=O)c2cc(F)ccc2F)c1C`: 0.204 µM; `Cc1ccc(C2NC(=O)c3ccccc3N2)s1` (stereo unspecified): 4.16 µM.
Next, `CCOc1cc(N2CCOCC2)c(OCC)cc1NS(=O)(=O)c1ccc(Cl)s1`: 1.84 µM; `CCOC(=O)c1c(C)c(C(=O)Nc2ccc3c(c2)OCCO3)c(C)n1CC`: 7.96 µM (inactive); `CCC(=NC(C)c1ccccc1)c1c(O)n(C)c(=O)n(C)c1=O` (stereo unspecified): 11.3 µM (inactive).
As for `Fc1ccc(Br)cc1C1C=C(c2cccnc2)Nc2ncnn21` (stereo unspecified), the CC50 is 8.76 µM (inactive).
The figure for `Clc1ccc(C2=Nn3c(nnc3-c3n[nH]c4c3CCC4)SC2)cc1` is 1.64 µM.
Next, `COc1cc(N=Cc2c(O)[nH]c3ccccc23)cc(OC)c1OC`: 1.58 µM.
Next, `COc1ccccc1-n1cnc2cc(NCc3ccco3)ccc21`: 0.313 µM; `COc1ccccc1N1CCN(C(=O)c2c(-c3ccccc3)noc2C)CC1`: 2.92 µM; `Cc1cc(NC(=O)CCCS(=O)(=O)c2nc(-c3cccs3)cc(C(F)(F)F)n2)no1`: 2 µM.
With `O=C(c1cccc(C(=O)N2CCN(c3ccc(F)cc3)CC2)c1)N1CCN(c2ccc(F)cc2)CC1`, the CC50 was > 40 µM (inactive).
As for `O=S1(=O)C=C(Sc2nc3ccccc3s2)c2ccccc21`, the CC50 is 0.647 µM.
Next, `CCOc1cc(C(=O)Nc2cnccn2)cc(OCC)c1OCC`: 6.16 µM (inactive).
Next, `CCOC(=O)COc1cccc2c(=O)n(CC(=O)NCc3ccc4c(c3)OCO4)ccc12`: 5.51 µM (inactive); `Cn1ncnc2c(=O)n(C)c(=O)nc1-2`: 2.06 µM.
Turning to `COc1ccc(C2=NOC(C(=O)NCc3ccccc3)C2)cc1` (stereo unspecified), the CC50 was 3.26 µM.
For `O=C(Nc1ccncc1)C1CCCN(S(=O)(=O)c2cccc3cccnc23)C1` (stereo unspecified), the CC50 was 1.42 µM.
The figure for `CC(C)OCCCNc1ncnc2c1[nH]c1ccccc12` is 4.91 µM.
Next, `CCCCCN=Cc1c(C)[nH]n(-c2nc3ccccc3s2)c1=O`: 6.35 µM (inactive).
As to `Cc1ccc(C2c3c(-c4ccccc4O)n[nH]c3C(=O)N2Cc2ccncc2)cc1` (stereo unspecified), the CC50 is 6.79 µM (inactive).
As for `COc1cccc(OC)c1C1=NCC(=O)Nc2c1oc1ccc(Br)cc21`, the CC50 was 0.693 µM.
For the compound `CCOC(=O)c1[nH]c(C)c(C(=O)Nc2cc(OC)ccc2OC)c1C`, the CC50 is 0.458 µM.
Next, `COc1cc(NS(=O)(=O)c2ccc(C)cc2)c2ncccc2c1`: 10.1 µM (inactive); `Cc1cccc(-n2c(O)c(C=Nc3ccccc3N)c(=O)[nH]c2=O)c1`: > 13 µM (inactive).
`O=S(=O)(C/C(=C/CO)S(=O)(=O)c1ccccc1)c1ccccc1`: the CC50 is 2.2 µM.
Next, `CCCCOc1ncnc2c1[nH]c1ccccc12`: 5.71 µM (inactive); `CC(C)C(=O)Nc1ccc(C(=O)NCc2cccnc2)cc1`: 3.87 µM.
`O=C(Nc1nc2ccc(S(=O)(=O)N3CCCC3)cc2s1)C1CCCCC1`: the half-maximal cytotoxic concentration (CC50) was 3.73 µM.
As to `CCc1ccc(CCC(=O)Nc2sc3c(c2C#N)CCCC3)o1`, the half-maximal cytotoxic concentration (CC50) is 3.05 µM.
For `Cc1nc(NCc2ccco2)c2c3c(sc2n1)CCC3`, the CC50 is 15.6 µM (inactive).
Regarding `CN(C)c1ccc(C(=O)c2ccc(N(C)C)c(N)c2)cc1N`, the CC50 was 8.53 µM (inactive).
Next, `O=c1c2ccccc2nnn1CSc1nnc(-c2cccs2)n1Cc1ccccc1`: > 40 µM (inactive); `C/C=C/COC(=O)c1[nH]c2c(c1C)C(=O)CC(c1ccco1)C2` (stereo unspecified): 0.196 µM; `CC(=O)Nc1ccc(S(=O)(=O)N2CCCc3ccccc32)cc1`: 3.07 µM.
As for `CCOC(=O)c1nc(S(C)(=O)=O)ncc1Cl`, the half-maximal cytotoxic concentration (CC50) is 4.66 µM.
Regarding `O=C(Nc1nnc(C2CC2)o1)c1ccc(S(=O)(=O)N2CCCc3ccccc32)cc1`, the CC50 is 22.9 µM (inactive).
In the case of `N#Cc1c(NC(=O)CSc2nc(N)cc(=O)[nH]2)sc2c1CCCCCC2`, the CC50 is 6.25 µM (inactive).
For the compound `CCOc1ccc2ccccc2c1C(=O)N1CCN(c2ccccc2)CC1`, the CC50 was 3.75 µM.
As for `COc1cccc2sc(Nc3nnc(-c4ccccc4Cl)o3)nc12`, the CC50 was 1.13 µM.
Take `CCc1ccc(NS(=O)(=O)c2cc(OC)ccc2OC)cc1`: the CC50 was 16.6 µM (inactive).
For `CCOc1ccc(N(CC)S(=O)(=O)c2ccc3c(c2)oc(=O)n3C)cc1`, the CC50 is 2.94 µM.
Next, `CC1CCCCN1S(=O)(=O)c1ccc(C(=O)Nc2nnc(-c3cccs3)o2)cc1` (stereo unspecified): 13.7 µM (inactive); `CCCCN(CC)S(=O)(=O)c1ccc(C(=O)Nc2nnc(CSC)o2)cc1`: 37.6 µM (inactive); `O=C(CSc1nnnn1-c1ccc2c(c1)OCO2)NCc1ccccc1`: > 4.4 µM (inactive).
For the compound `Cc1ccc(C(=O)Nc2ccc(Cl)cn2)cc1`, the CC50 is 4.48 µM.
For the compound `COc1cc(NS(=O)(=O)c2ccc(OC)c(C)c2C)c(OC)cc1Cl`, the CC50 is 1.62 µM.
Next, `Cc1cccc(Cn2c(NCC(C)O)nc3c2c(=O)n(C)c(=O)n3C)c1` (stereo unspecified): 8.24 µM (inactive).
The figure for `COc1ccccc1-n1nnnc1S(=O)(=O)Cc1ccc(Cl)cc1` is 3.3 µM.
The figure for `CC(C)c1cc(C(=O)Nc2sc3c(c2C#N)CCC3)no1` is 15.6 µM (inactive); for `CCOC(=O)C(C)Oc1cccc2c(=O)n(CC(=O)NCc3ccc4c(c3)OCO4)ccc12` (stereo unspecified) it is 3.9 µM; for `C=CCOC(=O)c1[nH]c2c(c1C)C(=O)CC(c1cc(OC)c(OC)c(OC)c1)C2` (stereo unspecified) it is 24 µM (inactive).
Consider `Cc1cc2c(cc(C(=O)OCC(=O)NCc3cccs3)n2C(C)C)o1`, for which the CC50 is 0.837 µM.
Regarding `COc1ccc(CC(=O)Nc2nc(C)cs2)cc1OC`, the CC50 is 23.4 µM (inactive).
Next, `O=C(CSc1n[nH]c(-c2ccccc2O)n1)N1CCCc2ccccc21`: 9.5 µM (inactive).
Next, `CCOc1ccccc1C1CC(=O)Nc2cc3c(cc21)OCCO3` (stereo unspecified): 0.625 µM; `O=C(Nc1ccc(N2CCCCC2)c(Cl)c1)c1cccnc1`: > 40 µM (inactive).
Take `COc1ccc(CCNc2ncnc3c2oc2ccccc23)cc1OC`: the CC50 was 2.72 µM.
Consider `CCOC(=O)c1ccccc1NC(=O)Cn1c(-c2nonc2N)nc2ccccc21`, for which the CC50 was 0.296 µM.
The figure for `Cc1nnc(NC(=O)CSc2nccn2-c2cccc(C)c2C)s1` is 2.04 µM.
The figure for `O=C(Nc1nc(-c2ccccn2)cs1)c1ccc(Cl)s1` is 2.12 µM; for `COc1ccc2nc(NC(=O)c3cccc(OCc4c(C)noc4C)c3)sc2c1` it is 1.6 µM; for `COc1ccccc1N1CCN(Cc2cc(Br)c(O)c3ncccc23)CC1` it is 7.73 µM (inactive).
Turning to `COc1cc2c(cc1OC)C(C)N(C(=O)c1cc3ccccc3o1)CC2` (stereo unspecified), the CC50 was 24.4 µM (inactive).
For `COc1ccc(Nc2oc(-c3ccccc3Cl)nc2C#N)cc1`, the CC50 was 1.42 µM.
The figure for `O=C(c1cc(-c2ccc(O)cc2)on1)N1CCc2ccccc2C1` is > 40 µM (inactive); for `CCOC(=O)c1c(C)c(C(=O)Nc2cc(OC)ccc2OC)c(C)n1CC` it is 11.4 µM (inactive); for `Cc1ccc(-n2c(O)c(C=Nc3ccccc3N)c(=O)[nH]c2=O)cc1C` it is > 13 µM (inactive).
The figure for `Cc1ccc(-c2nc(-c3ccccn3)no2)cc1` is 10.3 µM (inactive); for `Oc1ccccc1-c1nnc(SCCN2CCOCC2)n1Cc1ccccc1` it is 1.7 µM.
Turning to `CCOC(=O)C1CCN(Cc2ccc(O)c3ncccc23)CC1`, the CC50 is 9.85 µM (inactive).
`C=CCn1c(SCc2c(C)noc2C)nc2cc(C(=O)O)ccc2c1=O`: the CC50 is 3.4 µM.
With `CCN(C1CCCCC1)S(=O)(=O)c1ccc(S(=O)(=O)NCc2ccncc2)cc1`, the CC50 was 5.32 µM (inactive).
In the case of `Nc1nnnn1/N=C/C(Br)=C/c1ccccc1`, the CC50 is > 13 µM (inactive).
In the case of `COc1cccc2sc(Nc3nc(-c4ccccn4)cs3)nc12`, the CC50 is 2.81 µM.
As for `Cc1ccccc1S(=O)(=O)Cc1ccc(C(=O)N2CCN(c3cccc(C)c3C)CC2)o1`, the CC50 is 2.27 µM.
For `Cc1oc(-c2ccccc2Cl)nc1CSCC(=O)N1CCCC1`, the CC50 was > 40 µM (inactive).
Regarding `Oc1c(CN2CCCCC2)cc(Br)c2cccnc12`, the CC50 is 3.79 µM.
Next, `CCCCn1c(CN2CCN(c3cccc(Cl)c3)CC2)nc2c1c(=O)[nH]c(=O)n2C`: 2.84 µM.
Regarding `Cc1noc(C)c1CSc1nc2ccccc2nc1NS(=O)(=O)c1ccc(Cl)cc1`, the CC50 was 31.5 µM (inactive).
Next, `COc1ccc(-c2nnc(NC(=O)c3ccc(S(=O)(=O)N4COCC4(C)C)cc3)o2)cc1`: 22.7 µM (inactive).
Next, `Clc1ccc(-n2nnnc2Sc2ncnc3sccc23)cc1`: > 13 µM (inactive).
